# From ChEMBL document CHEMBL5729675, “Sulfonamide compound or salt thereof” (2023)
# Target: Ribonucleotide reductase (Homo sapiens, UniProt P23921+Q7LG56)
# Assay: Human RNR Inhibition Effect: The inhibitory activity against the ribonucleotide reduction reaction (hereinafter referred to as RNR reaction) of the test compound was determined by measuring the formation of deoxycytidine diphosphate (hereinafter referred to as dCDP) from cytidine diphosphate (hereinafter referred to as CDP) by the following method.Human M1 subunit and human M2 subunit (mutant …
# Ribonucleotide reductase, sequence (P23921 whole entry, looked up): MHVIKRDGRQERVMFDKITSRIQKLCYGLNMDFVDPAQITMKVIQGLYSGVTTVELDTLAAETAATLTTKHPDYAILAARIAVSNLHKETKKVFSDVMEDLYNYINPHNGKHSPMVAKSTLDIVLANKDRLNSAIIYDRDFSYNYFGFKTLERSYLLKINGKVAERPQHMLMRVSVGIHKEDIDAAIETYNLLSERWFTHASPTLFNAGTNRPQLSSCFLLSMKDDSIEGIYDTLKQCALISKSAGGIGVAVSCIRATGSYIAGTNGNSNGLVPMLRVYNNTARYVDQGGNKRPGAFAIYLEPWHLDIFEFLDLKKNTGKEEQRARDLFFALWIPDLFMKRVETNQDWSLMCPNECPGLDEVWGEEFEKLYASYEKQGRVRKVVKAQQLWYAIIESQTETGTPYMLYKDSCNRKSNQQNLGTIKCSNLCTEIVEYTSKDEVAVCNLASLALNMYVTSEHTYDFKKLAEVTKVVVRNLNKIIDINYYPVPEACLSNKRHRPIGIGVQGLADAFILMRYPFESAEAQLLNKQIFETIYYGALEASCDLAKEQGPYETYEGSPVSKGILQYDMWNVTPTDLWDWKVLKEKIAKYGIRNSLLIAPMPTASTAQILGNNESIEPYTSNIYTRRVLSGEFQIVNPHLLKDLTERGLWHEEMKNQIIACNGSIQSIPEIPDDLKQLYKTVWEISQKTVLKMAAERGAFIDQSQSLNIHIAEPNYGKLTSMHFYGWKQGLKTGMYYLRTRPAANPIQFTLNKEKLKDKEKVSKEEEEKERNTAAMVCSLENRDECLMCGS
# Ribonucleotide reductase, sequence (Q7LG56 whole entry, looked up): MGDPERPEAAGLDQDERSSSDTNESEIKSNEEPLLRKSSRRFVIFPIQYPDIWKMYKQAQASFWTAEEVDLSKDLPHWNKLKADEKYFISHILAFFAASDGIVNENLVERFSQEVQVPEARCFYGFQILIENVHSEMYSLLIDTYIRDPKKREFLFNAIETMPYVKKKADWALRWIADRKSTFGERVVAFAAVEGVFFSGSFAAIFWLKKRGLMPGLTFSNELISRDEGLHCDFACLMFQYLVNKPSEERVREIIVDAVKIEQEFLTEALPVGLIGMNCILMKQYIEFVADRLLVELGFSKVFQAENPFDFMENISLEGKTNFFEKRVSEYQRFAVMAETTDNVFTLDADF
row,IC50,Compound
1,500 nM,Cc1ccc(F)c([C@@H](C)[C@H](NS(=O)(=O)c2ccc(Cl)cc2C(N)=O)c2n[nH]c(=O)o2)c1Cl
2,110 nM,CCN1CCOc2c(S(=O)(=O)N[C@H](c3n[nH]c(=O)o3)[C@H](C)c3c(F)ccc(C)c3C)ccc(Cl)c21
3,60 nM,Cc1ccc(F)c([C@@H](C)[C@H](NS(=O)(=O)c2ccc(Br)cc2C(N)=O)c2n[nH]c(=O)o2)c1C
4,420 nM,COc1cc(Cl)ccc1S(=O)(=O)N[C@H](c1n[nH]c(=O)o1)C(C)c1c(F)c(F)cc(C)c1Br (stereo not given in full)
5,240 nM,COc1cc(Cl)ccc1S(=O)(=O)N[C@H](c1n[nH]c(=O)o1)[C@H](C)c1cccc2cccc(C)c12
6,190 nM,Cc1ccc(F)c([C@@H](C)[C@H](NS(=O)(=O)c2cc(C(=O)O)c(Cl)cc2C(N)=O)c2n[nH]c(=O)o2)c1C
7,840 nM,C[C@H](c1cccc2ccccc12)[C@H](NS(=O)(=O)c1ccc(Cl)cc1Cl)c1n[nH]c(=O)o1
8,360 nM,Cc1ccc(F)c([C@@H](C)[C@H](NS(=O)(=O)c2ccc(Cl)cc2C#N)c2n[nH]c(=O)o2)c1C
9,840 nM,COc1cc(Cl)ccc1S(=O)(=O)N[C@H](c1n[nH]c(=O)o1)[C@H](C)c1cccc(C)c1C(C)C
10,100 nM,CCc1ccc(F)c([C@@H](C)[C@H](NS(=O)(=O)c2ccc(Br)cc2C(N)=O)c2n[nH]c(=O)o2)c1C
11,60 nM,Cc1ccc(F)c([C@@H](C)[C@H](NS(=O)(=O)c2ccc(Cl)c(C(=O)N3CCOCC3)n2)c2n[nH]c(=O)o2)c1C
12,200 nM,Cc1ccc(F)c([C@@H](C)[C@H](NS(=O)(=O)c2ccc(Br)cc2C#N)c2n[nH]c(=O)o2)c1C
13,200 nM,COc1cc(Cl)ccc1S(=O)(=O)N[C@H](c1n[nH]c(=O)o1)[C@H](C)c1c(F)ccc2ccccc12
14,500 nM,Cc1c(F)ccc(F)c1[C@@H](C)[C@H](NS(=O)(=O)c1ccc(Cl)cc1C(N)=O)c1n[nH]c(=O)o1
15,770 nM,C[C@H](c1cccc2c1CCCC2)[C@H](NS(=O)(=O)c1ccc(Cl)cn1)c1n[nH]c(=O)o1
16,180 nM,CCc1ccc(F)c([C@@H](C)[C@H](NS(=O)(=O)c2ccc(Cl)cc2C(N)=O)c2n[nH]c(=O)o2)c1C

row,IC50,Compound
1,130 nM,Cc1ccc(F)c([C@@H](C)[C@H](NS(=O)(=O)c2cnc(Cl)cc2C(N)=O)c2n[nH]c(=O)o2)c1C
2,150 nM,Cc1ccc(F)c([C@@H](C)[C@H](NS(=O)(=O)c2ccc(Cl)c3c2OCCC3=O)c2n[nH]c(=O)o2)c1C
3,160 nM,COc1cc(Cl)ccc1S(=O)(=O)N[C@H](c1n[nH]c(=O)o1)[C@H](C)c1c(C)c(C)cc(F)c1F
4,960 nM,Cc1ccc(F)c([C@@H](C)[C@H](NS(=O)(=O)c2c(F)cccc2F)c2n[nH]c(=O)o2)c1C
5,270 nM,Cc1ccc(F)c([C@@H](C)[C@H](NS(=O)(=O)c2c(F)cc(Cl)cc2F)c2n[nH]c(=O)o2)c1C
6,240 nM,Cc1ccc(F)c([C@@H](C)[C@H](NS(=O)(=O)c2ccc(Cl)c3c2C(=O)CCC3)c2n[nH]c(=O)o2)c1C
7,160 nM,Cc1ccc(F)c([C@@H](C)[C@H](NS(=O)(=O)c2ccc(Cl)c(C#N)n2)c2n[nH]c(=O)o2)c1C
8,150 nM,COc1cc(Cl)cnc1S(=O)(=O)N[C@H](c1n[nH]c(=O)o1)[C@H](C)c1c(F)ccc(C)c1C
9,400 nM,CCc1cccc([C@@H](C)[C@H](NS(=O)(=O)c2ccc(Cl)cc2OC)c2n[nH]c(=O)o2)c1C
10,140 nM,Cc1ccc(F)c([C@@H](C)[C@H](NS(=O)(=O)c2ccc(Cl)c3c2OCCN3CC(F)F)c2n[nH]c(=O)o2)c1C
11,700 nM,COc1cc(Cl)ccc1S(=O)(=O)N[C@H](c1n[nH]c(=O)o1)[C@H](C)c1cccc2c1CC(C)C2 (stereo not given in full)
12,100 nM,Cc1ccc(F)c([C@@H](C)[C@H](NS(=O)(=O)c2ccc(Cl)c(C(N)=O)n2)c2n[nH]c(=O)o2)c1C
13,140 nM,Cc1cc(F)c(F)c([C@@H](C)[C@H](NS(=O)(=O)c2ccc(Cl)cc2C(N)=O)c2n[nH]c(=O)o2)c1C
14,270 nM,CC(=O)OC1(C(F)(F)F)CCOc2c1cccc2S(=O)(=O)N[C@H](c1n[nH]c(=O)o1)[C@H](C)c1c(F)ccc(C)c1C (stereo not given in full)
15,240 nM,Cc1ccc(F)c([C@@H](C)[C@H](NS(=O)(=O)c2ccc(Cl)cc2C(N)=O)c2n[nH]c(=O)o2)c1

# Second part, the compound before the results:
row,Compound,IC50
1,Cc1c(Cl)ccc(F)c1[C@@H](C)[C@H](NS(=O)(=O)c1ccc(Br)cc1C(N)=O)c1n[nH]c(=O)o1,150 nM
2,Cc1ccc(F)c([C@@H](C)[C@H](NS(=O)(=O)c2cc(C(=O)N3CCOCC3)ccc2C(N)=O)c2n[nH]c(=O)o2)c1C,110 nM
3,Cc1ccc(F)c([C@@H](C)[C@H](NS(=O)(=O)c2ccc(Cl)c(C(=O)N3CCCC3)n2)c2n[nH]c(=O)o2)c1C,60 nM
4,Cc1cc(F)cc([C@@H](C)[C@H](NS(=O)(=O)c2ccc(Cl)cc2C(N)=O)c2n[nH]c(=O)o2)c1C,450 nM
5,Cc1cccc([C@@H](C)[C@H](NS(=O)(=O)c2ccc(Br)cc2C(N)=O)c2n[nH]c(=O)o2)c1C,380 nM
6,Cc1c(Cl)ccc(F)c1[C@@H](C)[C@H](NS(=O)(=O)c1ccc(Cl)cc1C(N)=O)c1n[nH]c(=O)o1,250 nM
7,C[C@H](c1c(F)ccc2ccccc12)[C@H](NS(=O)(=O)c1ccc(Br)cc1C(N)=O)c1n[nH]c(=O)o1,100 nM
8,C[C@H](c1c(F)ccc2ccccc12)[C@H](NS(=O)(=O)c1ccc(Cl)cc1C(N)=O)c1n[nH]c(=O)o1,110 nM
9,Cc1ccc(F)c([C@@H](C)[C@H](NS(=O)(=O)c2ccc(Cl)cc2-c2ccno2)c2n[nH]c(=O)o2)c1C,230 nM
10,Cc1ccc(F)c([C@@H](C)[C@H](NS(=O)(=O)c2cc(C(=O)N(C)C)ccc2C(N)=O)c2n[nH]c(=O)o2)c1C,140 nM
11,Cc1ccc(F)c([C@@H](C)[C@H](NS(=O)(=O)c2ccccc2C#N)c2n[nH]c(=O)o2)c1C,640 nM
12,Cc1c(Br)ccc(F)c1[C@@H](C)[C@H](NS(=O)(=O)c1ccc(C(F)(F)F)cc1C(N)=O)c1n[nH]c(=O)o1,200 nM
13,COC(=O)c1nc(S(=O)(=O)N[C@H](c2n[nH]c(=O)o2)[C@H](C)c2c(F)ccc(C)c2C)ccc1Cl,60 nM
14,Cc1c(Br)ccc(F)c1[C@@H](C)[C@H](NS(=O)(=O)c1ccc(Cl)cc1C(N)=O)c1n[nH]c(=O)o1,150 nM
15,Cc1ccc(F)c([C@@H](C)[C@H](NS(=O)(=O)c2ccc(Cl)c3c2OCC(=O)N3CC(F)F)c2n[nH]c(=O)o2)c1C,130 nM
16,Cc1c(C(F)(F)F)ccc(F)c1[C@@H](C)[C@H](NS(=O)(=O)c1ccc(Cl)cc1C(N)=O)c1n[nH]c(=O)o1,550 nM
17,Cc1ccc(F)c([C@@H](C)[C@H](NS(=O)(=O)c2ccc(Cl)c(C(=O)N3C4CCC3COC4)n2)c2n[nH]c(=O)o2)c1C,70 nM
18,Cc1c(C2CC2)ccc(F)c1[C@@H](C)[C@H](NS(=O)(=O)c1ccc(Cl)cc1C(N)=O)c1n[nH]c(=O)o1,160 nM
19,COc1cc(Cl)ccc1S(=O)(=O)N[C@H](c1n[nH]c(=O)o1)[C@H](C)c1c(F)ccc(C#N)c1C,840 nM
20,Cc1cccc([C@@H](C)[C@H](NS(=O)(=O)c2ccc(Cl)cc2C(N)=O)c2n[nH]c(=O)o2)c1C,300 nM
21,Cc1ccc(F)c([C@@H](C)[C@H](NS(=O)(=O)c2ccc(C(F)(F)F)cc2C(N)=O)c2n[nH]c(=O)o2)c1C,100 nM
22,Cc1ccc(F)c([C@@H](C)[C@H](NS(=O)(=O)c2cccc3c2OCCN3C(=O)C2CC2)c2n[nH]c(=O)o2)c1C,290 nM

row,Compound,IC50
1,CC1CCc2cccc(C(C)[C@H](NS(=O)(=O)c3ccc(Br)cn3)c3n[nH]c(=O)o3)c21 (stereo not given in full),600 nM
2,C[C@H](c1cccc2c1CCC2)[C@H](NS(=O)(=O)c1ccc(Br)cc1F)c1n[nH]c(=O)o1,990 nM
3,Cc1ccc(F)c([C@@H](C)[C@H](NS(=O)(=O)c2ccc(Cl)c(C(=O)N3CC4CCC(C3)O4)n2)c2n[nH]c(=O)o2)c1C,30 nM
4,Cc1ccc(F)c([C@@H](C)[C@H](NS(=O)(=O)c2ccc(Cl)c3c2OCC(=O)N3C)c2n[nH]c(=O)o2)c1C,100 nM
5,Cc1ccc(S(=O)(=O)N[C@H](c2n[nH]c(=O)o2)[C@H](C)c2c(F)ccc(C)c2C)c(C(N)=O)c1,140 nM
6,Cc1c(Br)ccc(F)c1[C@@H](C)[C@H](NS(=O)(=O)c1ccc(Br)cc1C(N)=O)c1n[nH]c(=O)o1,130 nM
7,Cc1ccc(F)c([C@@H](C)[C@H](NS(=O)(=O)c2cc(C(=O)N(C)C)c(Cl)cc2C(N)=O)c2n[nH]c(=O)o2)c1C,40 nM
8,Cc1cccc2cccc([C@@H](C)[C@H](NS(=O)(=O)c3ccc(Cl)c4c3OCCC4(F)F)c3n[nH]c(=O)o3)c12,280 nM
9,Cc1ccc(F)c([C@@H](C)[C@H](NS(=O)(=O)c2ccc(C3CC3)cc2C(N)=O)c2n[nH]c(=O)o2)c1C,130 nM
10,Cc1ccc(S(=O)(=O)N[C@H](c2n[nH]c(=O)o2)[C@H](C)c2c(F)ccc3ccccc23)c(C(N)=O)c1,170 nM
11,CCc1ccc(S(=O)(=O)N[C@H](c2n[nH]c(=O)o2)[C@H](C)c2c(F)ccc(C)c2C)c(C(N)=O)c1,130 nM
12,Cc1ccc(F)c([C@@H](C)[C@H](NS(=O)(=O)c2cccc3c2OC(C)(C)CC3=O)c2n[nH]c(=O)o2)c1C,240 nM
13,CC(=O)OC1(C)CCOc2c(S(=O)(=O)N[C@H](c3n[nH]c(=O)o3)[C@H](C)c3c(F)ccc(Cl)c3C)ccc(Cl)c21 (stereo not given in full),300 nM
14,Cc1ccc(F)c([C@@H](C)[C@H](NS(=O)(=O)c2ccc(Cl)nc2C(N)=O)c2n[nH]c(=O)o2)c1C,190 nM
15,C[C@H](c1cc(F)cc2ccccc12)[C@H](NS(=O)(=O)c1ccc(Cl)cc1C(N)=O)c1n[nH]c(=O)o1,600 nM
16,COc1cc(Cl)ccc1S(=O)(=O)N[C@H](c1n[nH]c(=O)o1)[C@H](C)c1c(F)ccc(C)c1C,140 nM
17,Cc1ccc(F)c([C@@H](C)[C@H](NS(=O)(=O)c2ccccc2C(N)=O)c2n[nH]c(=O)o2)c1C,260 nM
18,Cc1ccc(F)c([C@@H](C)[C@H](NS(=O)(=O)c2ccc(Cl)c(C(=O)N3CCC4(CCC4)C3)n2)c2n[nH]c(=O)o2)c1C,180 nM
19,C[C@H](c1cccc2c1-c1ccccc1C2)[C@H](NS(=O)(=O)c1ccc(Br)cn1)c1n[nH]c(=O)o1,850 nM
20,COc1c(S(=O)(=O)N[C@H](c2n[nH]c(=O)o2)[C@H](C)c2c(F)ccc(C)c2C)ccc(Cl)c1C(C)(C)OC(C)=O,430 nM
21,COC(=O)c1cc(Cl)ccc1S(=O)(=O)N[C@H](c1n[nH]c(=O)o1)[C@H](C)c1c(F)ccc(C)c1C,410 nM
22,C[C@H](c1cccc2c1Cc1ccccc1-2)[C@H](NS(=O)(=O)c1ccc(Br)cn1)c1n[nH]c(=O)o1,800 nM
